Test results: patent publication US9187425B2, “2,5-disubstituted arylsulfonamide CCR3 antagonists” (Axikin Pharmaceuticals, Inc., priority 2009, dated 2015)
pKi: −log10 of the molar value.

Biological target: T1, CCR3 (UniProt P51677)
T1 sequence (P51677 1-355): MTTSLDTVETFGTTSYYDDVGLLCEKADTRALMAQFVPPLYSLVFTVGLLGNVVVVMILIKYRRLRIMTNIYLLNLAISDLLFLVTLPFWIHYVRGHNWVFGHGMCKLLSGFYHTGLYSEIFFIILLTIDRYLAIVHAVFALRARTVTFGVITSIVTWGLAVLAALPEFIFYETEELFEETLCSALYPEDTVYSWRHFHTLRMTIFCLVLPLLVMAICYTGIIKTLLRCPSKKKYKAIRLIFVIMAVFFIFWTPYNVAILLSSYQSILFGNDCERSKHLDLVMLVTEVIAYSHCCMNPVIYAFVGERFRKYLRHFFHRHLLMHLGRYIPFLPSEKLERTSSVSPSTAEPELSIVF
Test: CCR3 Receptor Binding Assay ([125I]-labeled human eotaxin/CCL11 displacement on cells)
Settings: 0.1 nM [125I]-labeled human eotaxin/CCL11, 60 min at room temperature, 2×10^5 cells/well
Description: Cells were washed once with PBS and resuspended in a binding buffer (25 mM HEPES pH 7.6, 5 mM MgCl2, 1 mM CaCl2, 0.5% BSA, 0.1% NaN3). […] of cell suspension (2×10^5 cells/well) and 0.1 nM [^125I]-labeled human eotaxin/CCL11 (2000 Ci/mmol specific activity) were mixed in a 96-well U-bottom polypropylene plate, and incubated for 60 min at room temperature for the binding reaction. The cell suspension was then transferred to a filtration plate (#MAFB, Millipore), and washed 3 times with the binding buffer containing 0.5 M NaCl, scintillant added, and the radioactivity was counted on a TopCount (Packard). For the determination of non-specific binding, the cell suspension and [^125I]-labeled human eotaxin/CCL11 were incubated in the presence of 500 nM of unlabeled human eotaxin/CCL11. See, Iino et al., “Molecular cloning and functional characterization of cynomolgus monkey (Macaca fascicularis) CC chemokine receptor, CCR3,” Cytokine 2002, 19, 276-286.
Biological results are summarized in Table 1, wherein A represents a value no greater than 50 nM, and B represents a value greater than 50 nM but no greater than 500 nM, C represents a value greater than 500 nM but no greater than 5 μM, and D represents a value greater than 5 μM.

Row | pKi | SMILES
1 | ≥ 7.30 | CC(C)N1CCN(S(=O)(=O)c2cc(C#N)ccc2Sc2cc(Cl)cc(Cl)c2)CC1=O [Compound 31]
2 | ≥ 7.30 | Cc1cc(C)cc(Sc2ccc(C#N)cc2S(=O)(=O)N2CCS(=O)(=O)CC2)c1 [Compound 17]
3 | < 5.30 | Cc1cc(C)cc(Sc2ccc(C#N)cc2S(=O)(=O)N2CCS(=O)(=O)CC2)c1 [Compound 26]
4 | < 5.30 | N#Cc1ccc(Sc2cc(C(F)(F)F)cc(C(F)(F)F)c2)c(S(=O)(=O)N2CCSCC2)c1 [Compound 19]
5 | < 5.30 | Cc1cc(C)cc(Sc2ccc([N+](=O)[O-])cc2S(=O)(=O)N2CCSCC2)c1 [Compound 25]
6 | ≥ 7.30 | Cc1cc(C)cc(Sc2ccc(C#N)cc2S(=O)(=O)N2CCNC(=O)C2)c1 [Compound 10]
7 | ≥ 7.30 | N#Cc1ccc(Sc2cc(Cl)cc(Cl)c2)c(S(=O)(=O)N2CCNC(=O)C2)c1 [Compound 9]
8 | ≥ 7.30 | N#Cc1ccc(Sc2cc(Cl)cc(Cl)c2)c(S(=O)(=O)N2CCNC(=O)C2)c1 [Compound 11]
9 | ≥ 7.30 | COC(=O)C1CN(S(=O)(=O)c2cc(C#N)ccc2Sc2cc(Cl)cc(Cl)c2)CCN1 (stereo not drawn) [Compound 32]
10 | < 5.30 | O=[N+]([O-])c1ccc(Sc2cc(Cl)cc(Cl)c2)c(S(=O)(=O)N2CCSCC2)c1 [Compound 24]
11 | < 5.30 | CC1CC(C)CN(S(=O)(=O)c2cc(C#N)ccc2Sc2cc(Cl)cc(Cl)c2)C1 (stereo not drawn) [Compound 8]
12 | ≥ 7.30 | CC1CN(S(=O)(=O)c2cc(C#N)ccc2Sc2cc(Cl)cc(Cl)c2)CC(C)N1 (stereo not drawn) [Compound 29]
13 | < 5.30 | N#Cc1ccc([S+]([O-])c2cc(Cl)cc(Cl)c2)c(S(=O)(=O)N2CCCCC2)c1 (stereo not drawn) [Compound 2]
14 | ≥ 7.30 | N#Cc1ccc(Sc2cc(Cl)cc(Cl)c2)c(S(=O)(=O)N2CCC(F)CC2)c1 [Compound 7]
15 | ≥ 7.30 | Cc1cc(C)cc(Sc2ccc(C#N)cc2S(=O)(=O)N2CCCCC2)c1 [Compound 4]
16 | < 5.30 | N#Cc1ccc(S(=O)(=O)c2cc(Cl)cc(Cl)c2)c(S(=O)(=O)N2CCCCC2)c1 [Compound 3]
17 | 6.30 to 7.30 | N#Cc1ccc(Sc2cc(Cl)cc(Cl)c2)c(S(=O)(=O)N2CCSCC2)c1 [Compound 21]
18 | ≥ 7.30 | N#Cc1ccc(Sc2cc(Cl)cc(Cl)c2)c(S(=O)(=O)N2CCS(=O)(=O)CC2)c1 [Compound 23]
19 | 5.30 to 6.30 | N#Cc1ccc(Sc2cc(C(F)(F)F)cc(C(F)(F)F)c2)c(S(=O)(=O)N2CCOCC2)c1 [Compound 18]
20 | < 5.30 | N#Cc1ccc(Sc2cc(C(F)(F)F)cc(C(F)(F)F)c2)c(S(=O)(=O)N2CCS(=O)(=O)CC2)c1 [Compound 20]
21 | < 5.30 | Cc1cc(C)cc(Sc2ccc(C#N)cc2S(=O)(=O)N2CCSCC2)c1 [Compound 16]
22 | ≥ 7.30 | CC1CN(S(=O)(=O)c2cc(C#N)ccc2Sc2cc(Cl)cc(Cl)c2)CC(C)N1 (stereo not drawn) [Compound 28]
23 | ≥ 7.30 | N#Cc1ccc(Sc2cc(Cl)cc(Cl)c2)c(S(=O)(=O)N2CCOCC2)c1 [Compound 12]
24 | ≥ 7.30 | N#Cc1ccc(Sc2cc(Cl)cc(Cl)c2)c(S(=O)(=O)N2CCSCC2)c1 [Compound 13]
25 | < 5.30 | CC1CCN(S(=O)(=O)c2cc(C#N)ccc2Sc2cc(Cl)cc(Cl)c2)CC1 [Compound 6]
26 | 6.30 to 7.30 | N#Cc1ccc(Sc2cc(Cl)cc(Cl)c2)c(S(=O)(=O)N2CCCCC2)c1 [Compound 1]
27 | ≥ 7.30 | O=[N+]([O-])c1ccc(Sc2cc(Cl)cc(Cl)c2)c(S(=O)(=O)N2CCS(=O)(=O)CC2)c1 [Compound 30]
28 | < 5.30 | Cc1cc(C)cc(Sc2ccc(C#N)cc2S(=O)(=O)N2CCC(C)CC2)c1 [Compound 5]
29 | ≥ 7.30 | CC1CN(S(=O)(=O)c2cc(C#N)ccc2Sc2cc(Cl)cc(Cl)c2)CCN1 (stereo not drawn) [Compound 27]
30 | ≥ 7.30 | N#Cc1ccc(Sc2cc(Cl)cc(Cl)c2)c(S(=O)(=O)N2CCS(=O)(=O)CC2)c1 [Compound 14]
